Calls of active or inactive are those of the source. No cut-off for these calls is given here.
Key:
[1] = species on record: Homo sapiens; assay: Immunostimulatory activity in CFSE-labeled human NK cells assessed as TLR7 agonist-induced cell proliferation at 2 to 200 nM after 6 days by FACS analysis; type: functional
[2] = tested on: HEK293; assay: Induction of SEAP reporter gene expression in TLR-deficient HEK293 cells at 5 to 1000 ng/ml; type: functional, cell-based; conditions: Homo sapiens
[3] = target: T1, Toll-like receptor 7 (Homo sapiens) (UniProt Q9NYK1); assay: Agonist activity at human TLR7 expressed in HEK293 cells at <= 500 ng/ml by QUANTI-blue SEAP reporter gene assay; type: cell-based
T1 sequence (whole entry): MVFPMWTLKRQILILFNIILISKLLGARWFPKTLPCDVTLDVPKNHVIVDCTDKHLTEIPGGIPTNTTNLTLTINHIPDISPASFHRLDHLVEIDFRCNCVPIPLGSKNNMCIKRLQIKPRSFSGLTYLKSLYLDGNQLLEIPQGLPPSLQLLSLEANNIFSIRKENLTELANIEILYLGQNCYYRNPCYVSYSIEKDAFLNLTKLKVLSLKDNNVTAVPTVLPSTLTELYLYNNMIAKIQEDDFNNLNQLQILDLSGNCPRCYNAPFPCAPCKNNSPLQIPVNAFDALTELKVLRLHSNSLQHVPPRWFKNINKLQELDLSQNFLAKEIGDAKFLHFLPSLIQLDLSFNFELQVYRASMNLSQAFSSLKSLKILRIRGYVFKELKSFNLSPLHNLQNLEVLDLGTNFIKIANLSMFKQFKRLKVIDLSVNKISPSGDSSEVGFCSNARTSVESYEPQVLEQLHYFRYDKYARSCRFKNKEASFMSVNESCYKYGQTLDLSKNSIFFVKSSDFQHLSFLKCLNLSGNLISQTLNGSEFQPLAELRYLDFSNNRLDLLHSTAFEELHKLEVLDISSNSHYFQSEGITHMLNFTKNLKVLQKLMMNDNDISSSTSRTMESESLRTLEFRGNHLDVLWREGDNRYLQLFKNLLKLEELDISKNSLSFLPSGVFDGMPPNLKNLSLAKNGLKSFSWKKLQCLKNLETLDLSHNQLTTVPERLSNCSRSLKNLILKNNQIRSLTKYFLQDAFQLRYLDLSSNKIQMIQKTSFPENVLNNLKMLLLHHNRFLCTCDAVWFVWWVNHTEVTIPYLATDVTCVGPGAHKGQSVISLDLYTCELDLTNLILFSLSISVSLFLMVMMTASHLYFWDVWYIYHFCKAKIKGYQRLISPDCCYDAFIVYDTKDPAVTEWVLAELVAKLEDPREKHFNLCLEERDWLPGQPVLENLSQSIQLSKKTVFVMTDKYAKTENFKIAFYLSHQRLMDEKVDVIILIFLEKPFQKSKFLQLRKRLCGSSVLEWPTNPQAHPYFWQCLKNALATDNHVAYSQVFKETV

[4] = target: T2, Toll-like receptor 8 (Homo sapiens) (UniProt Q9NR97); assay: Agonist activity at human TLR8 expressed in HEK293 cells at 5 to 1000 ng/ml by QUANTI-blue SEAP reporter gene assay; type: cell-based
T2 sequence (whole entry): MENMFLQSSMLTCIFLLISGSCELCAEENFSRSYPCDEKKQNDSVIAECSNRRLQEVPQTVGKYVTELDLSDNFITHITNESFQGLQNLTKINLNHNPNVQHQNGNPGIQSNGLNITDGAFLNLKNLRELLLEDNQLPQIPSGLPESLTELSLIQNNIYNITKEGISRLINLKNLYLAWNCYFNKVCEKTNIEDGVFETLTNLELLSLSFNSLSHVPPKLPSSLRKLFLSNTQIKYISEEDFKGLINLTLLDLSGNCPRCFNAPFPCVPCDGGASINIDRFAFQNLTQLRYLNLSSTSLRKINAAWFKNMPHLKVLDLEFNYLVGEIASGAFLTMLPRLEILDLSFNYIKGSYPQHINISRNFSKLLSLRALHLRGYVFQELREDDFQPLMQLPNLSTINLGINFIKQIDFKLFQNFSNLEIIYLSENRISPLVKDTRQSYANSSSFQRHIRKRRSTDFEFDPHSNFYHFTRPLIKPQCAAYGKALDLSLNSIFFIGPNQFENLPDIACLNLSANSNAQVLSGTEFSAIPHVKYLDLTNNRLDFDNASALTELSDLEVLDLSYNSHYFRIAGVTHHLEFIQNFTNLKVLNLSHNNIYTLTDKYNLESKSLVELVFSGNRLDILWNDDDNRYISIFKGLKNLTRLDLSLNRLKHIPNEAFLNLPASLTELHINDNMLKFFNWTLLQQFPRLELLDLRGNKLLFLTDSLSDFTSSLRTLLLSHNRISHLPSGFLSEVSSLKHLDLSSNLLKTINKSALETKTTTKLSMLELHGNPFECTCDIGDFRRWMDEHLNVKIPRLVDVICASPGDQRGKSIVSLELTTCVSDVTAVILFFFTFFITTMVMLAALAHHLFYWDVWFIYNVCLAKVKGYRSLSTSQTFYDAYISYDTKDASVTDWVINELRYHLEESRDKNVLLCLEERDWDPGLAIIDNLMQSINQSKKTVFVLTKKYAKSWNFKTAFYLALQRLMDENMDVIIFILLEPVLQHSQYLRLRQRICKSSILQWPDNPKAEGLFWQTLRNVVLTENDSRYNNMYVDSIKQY

[5] = target: T3, Toll-like receptor 9 (Homo sapiens) (UniProt Q9NR96); assay: Agonist activity at human TLR9 expressed in HEK293 cells at 5 to 1000 ng/ml by QUANTI-blue SEAP reporter gene assay; type: cell-based
T3 sequence (whole entry): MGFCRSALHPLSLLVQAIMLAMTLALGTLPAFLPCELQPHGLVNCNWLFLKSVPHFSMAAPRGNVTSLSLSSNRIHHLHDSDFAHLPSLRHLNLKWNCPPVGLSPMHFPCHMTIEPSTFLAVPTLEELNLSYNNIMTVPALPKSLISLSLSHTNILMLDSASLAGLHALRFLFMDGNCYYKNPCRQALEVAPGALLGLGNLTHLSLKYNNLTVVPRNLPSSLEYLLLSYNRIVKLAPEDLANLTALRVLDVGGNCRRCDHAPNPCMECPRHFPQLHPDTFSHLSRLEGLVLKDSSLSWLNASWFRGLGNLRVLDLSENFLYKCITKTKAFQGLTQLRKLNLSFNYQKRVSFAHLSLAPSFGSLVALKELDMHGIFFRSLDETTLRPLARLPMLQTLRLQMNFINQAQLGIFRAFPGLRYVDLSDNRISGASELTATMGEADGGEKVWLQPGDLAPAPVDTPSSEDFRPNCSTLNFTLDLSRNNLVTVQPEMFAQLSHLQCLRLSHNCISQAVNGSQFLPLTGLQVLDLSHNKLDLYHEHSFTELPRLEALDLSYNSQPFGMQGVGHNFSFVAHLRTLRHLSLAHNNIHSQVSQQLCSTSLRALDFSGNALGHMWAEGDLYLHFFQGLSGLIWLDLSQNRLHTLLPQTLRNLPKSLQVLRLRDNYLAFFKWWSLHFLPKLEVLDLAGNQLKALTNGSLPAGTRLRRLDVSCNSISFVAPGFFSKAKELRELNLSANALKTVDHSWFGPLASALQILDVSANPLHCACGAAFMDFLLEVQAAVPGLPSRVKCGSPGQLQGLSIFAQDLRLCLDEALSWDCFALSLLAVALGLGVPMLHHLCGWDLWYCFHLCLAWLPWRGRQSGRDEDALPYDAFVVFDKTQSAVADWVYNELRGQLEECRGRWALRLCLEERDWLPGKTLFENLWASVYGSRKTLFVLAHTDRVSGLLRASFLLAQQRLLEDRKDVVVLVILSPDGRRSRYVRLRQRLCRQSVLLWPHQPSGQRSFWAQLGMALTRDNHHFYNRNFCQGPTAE

[6] = tested on: T-cell; assay: Immunostimulatory activity in CFSE-labeled human T cells assessed as TLR7 agonist-induced cell proliferation at 2 to 200 nM after 6 days by FACS analysis; type: functional, cell-based
[7] = tested on: B cell; assay: Immunostimulatory activity in CFSE-labeled human B cells assessed as TLR7 agonist-induced cell proliferation after 6 days by FACS analysis; type: functional, cell-based; conditions: 144 h
[8] = target: T1, Toll-like receptor 7 (Homo sapiens); assay: Agonist activity at human TLR7 expressed in HEK293 cells at 1 ng/ml by QUANTI-blue SEAP reporter gene assay; type: cell-based
[9] = target: T1, Toll-like receptor 7 (Homo sapiens); assay: Agonist activity at human TLR7 expressed in HEK293 cells at <= 50 ng/ml by QUANTI-blue SEAP reporter gene assay; type: cell-based

Activity [3]	Activity [4]	Activity [5]	Activity [8]	Activity [9]	Structure (SMILES)	Activity [1]	Activity [2]	Activity [6]	EC50 [7] [nM]
Active	inactive	inactive	–	–	CCCCOc1nc(N)c2nc(O)n(Cc3ccc(C(=O)NCc4ccc(OC)cc4)cc3)c2n1	inactive	inactive	inactive	60.5
Active	inactive	inactive	–	–	CCCCOc1nc(N)c2nc(NC)n(Cc3ccccc3)c2n1	inactive	inactive	inactive	969
Active	inactive	inactive	–	–	CCCCOc1nc(N)c2nc(O)n(Cc3ccc(C(=O)NCCC(=O)N4Cc5ccccc5C#Cc5ccccc54)cc3)c2n1	–	inactive	–	–
–	inactive	inactive	inactive	–	CCCCOc1nc(N)c2nc(SCc3ccccc3)n(Cc3ccccc3)c2n1	–	inactive	–	–

The next lines start with the molecule.

Structure (SMILES)	Activity [3]	Activity [4]	Activity [5]	Activity [8]	Activity [9]	Activity [1]	Activity [2]	Activity [6]	EC50 [7] [nM]
CCCCOc1nc(N)c2nc(O)n(Cc3ccc(C(=O)NCCOCCOCCNC(=O)OC(C)(C)C)cc3)c2n1	Active	inactive	inactive	–	–	inactive	inactive	inactive	46.4
CCCCOc1nc(N)c2nc(O)n(Cc3ccc(C(=O)NCCCCN)cc3)c2n1	–	inactive	inactive	inactive	Active	inactive	inactive	inactive	47.4
CCCCOc1nc(N)c2nc(O)n(Cc3ccc(C(=O)NCCNC(=O)C4CCC(CN5C(=O)C=CC5=O)CC4)cc3)c2n1 (stereo unspecified)	Active	inactive	inactive	–	–	–	inactive	–	–

Source: ChEMBL document CHEMBL4425188, “Synthesis and immunostimulatory activity of substituted TLR7 agonists” (Bioorg Med Chem Lett, 2016)
